Converted amounts (≈) assume the structure as drawn. Where two headings read alike, the source gives them in different places.
Tests used:
ACAT (blood vessel wall) = assay: ACAT inhibitory action, microsome enzyme from blood vessel wall (stethartery); type: biochemical, rabbits; settings: for IC50: A = the blood vessel wall, microsome from stethartery of rabbits fed 1% cholesterol feed, 14C-oleoyl-CoA, 37°C, five minutes; for IC50 (B) /IC50 (A): ratio small intestine / blood vessel wall
Method: (§1) Microsome was prepared by a conventional method from stethartery of rabbits fed for eight weeks with a 1% cholesterol feed and was suspended in a 0.15M phosphate buffer (pH 7.4) to provide an enzyme solution. An enzyme solution derived from small intestine was prepared from small intestine or rabbits fed with normal feed. […] The solvent layer was concentrated to dryness, the residue was dissolved in hexane and the solution was spotted on a TLC plate (manufactured by Merck) followed by developing with hexane : ether : acetic acid (75:25:1). Radioactivity of the resulting cholesterol ester fraction was measured by a BAS 2000 (manufactured by Fuji Photo Film) and IC50 values were determined from a comparative calculation with the control to which only DMSO was added.

ACAT (small intestine) = assay: ACAT inhibitory action, enzyme from small intestine; type: biochemical; settings: B = the small intestine of rabbits fed normal feed; 14C-oleoyl-CoA, 37°C, three minutes
Method: as §1

J774 cells = assay: ACAT inhibitory action (anti-foaming action) in J774 cells; settings: for IC50 (HepG2) /IC50 (J774): ratio HepG2 / J774, 1080 min
Method: (§2) The medium was removed and, after washing with PBS twice, extraction was conducted with 1.5 ml of hexane : isopropanol (3:2) followed by concentrating to dryness. The extract was dissolved in 0.2 ml of isopropanol containing 10% of 10% Triton X-100 and total cholesterol (TC) and free cholesterol (FC) were determined by a Cholesterol E Test Wako (Wako Pure Chemicals) and a Free Cholesterol E Test Wako (Wako Pure Chemicals), respectively. Residue of the cells after extraction was solubilized with 0.25 ml of 2N NaOH at 30°C for 30 minutes and amount of protein was determined by means of a BCA Protein Assay Reagent (Pierce). From the difference between TC and FC, amount of cholesterol ester per protein was calculated and then IC50 was determined by means of a comparative calculation with the control.

[1] = Disintegration test: solubility in liquid No.1 for disintegration test of the Japanese Pharmacopoeia; type: physicochemical; settings: jp disintegration liquid no.1; pH 1.2; liquid No.1, shaken two hours, room temperature one hour, 0.45 µm filter
Method: Absorbance of a mixture of this filtrate with methanol in the same amounts was measured and, from the previously-determined ε1% 1cm values, solubility was calculated.

HepG2 cells = assay: ACAT inhibitory action (anti-foaming action) in HepG2 cells
Method: as §2

[2] = Mus musculus, J774, 18 h, read-out: Enzyme (J774) IC50(µM)
[3] = Homo sapiens, HepG2, 18 h, read-out: Enzyme (HepG2) IC50(µM)

Row | Compound | IC50 (ACAT (blood vessel wall)) | IC50 (B) /IC50 (A) (ACAT (blood vessel wall)) | IC50 (ACAT (small intestine)) | IC50 (J774 cells; [2]) | IC50 (HepG2) /IC50 (J774) (J774 cells) | solubility [1] | IC50 (HepG2 cells; [3]) | IC50 (J774 cells; read-out: Enzyme (J774) IC50, J774 cells, 10 µg/ml 25-OH cholesterol, 18 hours, cholesterol ester per protein) | IC50 (HepG2 cells; read-out: Enzyme (HepG2) IC50, HepG2 cells, 10 µg/ml 25-OH cholesterol, 18 hours, cholesterol ester per protein)
1 | CC(C)c1cccc(C(C)C)c1NC(=O)C(C)(C)CCCOc1ccc2c(c1)C=C(c1nccn1C)C(CCc1ccc(F)cc1)O2 (stereo not shown) [Control 1, 5-[2-(2-(4-Fluorophenyl)ethyl)-3-(1-methyl-1H-imidazol-2-yl)-2H-1-benzopyran-6-yl]oxy-2,2-dimethyl-N-(2,6-diisopropylphenyl) -pentanamide, reference compound] | 450 nM | 1.9 | 870 nM | 0.56 µM | 9.5 | – | – | – | –
2 | CCCC(CCCCC(=O)Nc1c(C(C)C)cccc1C(C)C)Sc1nc2ccccc2o1 (stereo not shown) [Control 5, 6-(Benzoxazol-2-ylthio)-N-(2,6-diisopropylphenyl)nonanamide] | – | – | – | – | – | 0.05 µg/mL (≈ 0.107 µM) | – | – | –
3 | COC(=O)c1cccc2nc(SCCCN3CCN(CC(=O)Nc4c(C(C)C)cccc4C(C)C)CC3)oc12 [Example 10, 2-[4-[3-(7-methoxycarbonylbenzoxazol - 2-ylthio)propyl]piperazin-1-yl]-N-(2,6-diisopropylphenyl) acetamide] | 35 nM | 1.1 | 39 nM | – | 18.2 | – | – | – | –
4 | COC(=O)c1cccc2oc(SCCN3CCN(CC(=O)Nc4c(C(C)C)cccc4C(C)C)CC3)nc12 [Example 5, 2-[4-[2-(4-methoxycarbonylbenzoxazol-2-ylthio)ethyl]-piperazin-1-yl]-N-(2,6-diisopropylphenyl) acetamide] | 56 nM | 2.3 | 130 nM | – | 14.5 | – | – | – | –
5 | CC(C)c1cccc(C(C)C)c1NC(=O)CN1CCN(CCSc2nc3cccc(C(F)(F)F)c3o2)CC1 [Example 85, 2-[4-[2-(7-trifluoromethylbenzoxazol-2-ylthio)ethyl]piperazin-1-yl]-N-(2,6-diisopropylphenyl)acetamide] | 12 nM | 4.9 | 59 nM | 0.019 µM | >53 | – | > 1 µM | – | –
6 | COc1cc(C(C)C)c(NC(=O)CN2CCN(CCSc3nc4ccccc4o3)CC2)c(C(C)C)c1 [Example 75, 2-[4-[2-(benzoxazol-2-ylthio)ethyl]-piperazin-1-yl]-N-(2,6-diisopropyl-4-methoxyphenyl)-acetamide] | 38 nM | 5.5 | 210 nM | 0.1 µM | >100 | – | > 10 µM | – | –
7 | CCCCCCCN(CCCCCSc1nc(-c2ccccc2)c(-c2ccccc2)[nH]1)c1nc2ccccc2o1 [Control 4, reference compound] | 26 nM | 1.4 | 37 nM | – | 6.3 | – | – | 0.12 µM | 0.75 µM
8 | CCCCCCCCCN(CC(C)(C)C)C(=O)N[C@H]1CCCC[C@@H]1OC(=O)CCNC(=O)C1OC(C)(C)OCC1(C)C (stereo partly shown) [Control 3, reference compound] | 34 nM | – | 56 nM | – | – | – | – | – | –
9 | CCOCCOc1cc(C(C)C)c(NC(=O)CN2CCN(CCSc3nc4ccccc4o3)CC2)c(C(C)C)c1 [Example 78, 2-[4-[2-(benzoxazol-2-ylthio)ethyl]piperazin-1-yl]-N-[2,6-diisopropyl-4-(2-ethoxyethyl)oxyphenyl)acetamide] | 40 nM | 5.3 | 210 nM | 0.014 µM | 58.6 | – | 0.82 µM | – | –

Source: patent EP0987254B1, “NOVEL CYCLIC DIAMINE COMPOUNDS AND MEDICINE CONTAINING THE SAME” (Kowa Co., Ltd., priority 1997, dated 1998)
